Results taken from ChEMBL document CHEMBL1909046, “DrugMatrix in vitro pharmacology data”.
Where a SMILES comes first, the peptide text is derived from it. Bridges are numbered along the chain shown (N, C = ends). [ ]: non-standard residue; d: D form. The star is where a group is joined. Threoninol(2S,3R) = C[C@@H](O)[C@H](CO)N*

Legend:
[1] = target: Aldo-keto reductase family 1 member B1 (Rattus norvegicus, UniProt P07943); experiment: biochemical; type: tissue-based, Lens of camera-type eye;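 also: inhibition of aldose reductase enzyme activity, measured with DL-glyceraldehyde as the substrate; in other assays of this panel Not Active means under 50% inhibition at 10 µM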
[2] = DRUGMATRIX: Calcium Channel Type L, Benzothiazepine radioligand binding (ligand: [3H] Diltiazem); type: cell membranes, Rattus norvegicus, Wistar, Brain, Membrane; details: Not Active = under 50% inhibition at 10 µM
Melanocortin receptor 4 = Melanocortin receptor 4 (Homo sapiens, UniProt P32245); type: cell membranes, Membrane; details: hek293; also: in other assays of this panel Not Active means under 50% inhibition at 10 µM
Chain of Melanocortin receptor 4 (P32245 whole entry): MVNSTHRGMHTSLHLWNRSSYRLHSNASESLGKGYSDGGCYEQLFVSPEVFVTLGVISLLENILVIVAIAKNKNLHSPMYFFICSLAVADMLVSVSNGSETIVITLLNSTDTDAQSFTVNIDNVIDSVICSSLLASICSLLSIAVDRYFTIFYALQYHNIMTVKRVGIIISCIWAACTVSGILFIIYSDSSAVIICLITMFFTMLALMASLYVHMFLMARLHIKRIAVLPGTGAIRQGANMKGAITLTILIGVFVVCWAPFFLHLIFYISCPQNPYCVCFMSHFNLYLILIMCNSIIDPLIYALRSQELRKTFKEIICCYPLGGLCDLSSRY

[3] = target: T1, Angiotensin-converting enzyme (Oryctolagus cuniculus, UniProt P12822); type: tissue-based, Lung;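 also: enzymatic inhibition of angiotensin-converting enzyme measured with FAPGG as the substrate; in other assays of this panel Not Active means under 50% inhibition at 10 µM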
T1 sequence (P12822 whole entry): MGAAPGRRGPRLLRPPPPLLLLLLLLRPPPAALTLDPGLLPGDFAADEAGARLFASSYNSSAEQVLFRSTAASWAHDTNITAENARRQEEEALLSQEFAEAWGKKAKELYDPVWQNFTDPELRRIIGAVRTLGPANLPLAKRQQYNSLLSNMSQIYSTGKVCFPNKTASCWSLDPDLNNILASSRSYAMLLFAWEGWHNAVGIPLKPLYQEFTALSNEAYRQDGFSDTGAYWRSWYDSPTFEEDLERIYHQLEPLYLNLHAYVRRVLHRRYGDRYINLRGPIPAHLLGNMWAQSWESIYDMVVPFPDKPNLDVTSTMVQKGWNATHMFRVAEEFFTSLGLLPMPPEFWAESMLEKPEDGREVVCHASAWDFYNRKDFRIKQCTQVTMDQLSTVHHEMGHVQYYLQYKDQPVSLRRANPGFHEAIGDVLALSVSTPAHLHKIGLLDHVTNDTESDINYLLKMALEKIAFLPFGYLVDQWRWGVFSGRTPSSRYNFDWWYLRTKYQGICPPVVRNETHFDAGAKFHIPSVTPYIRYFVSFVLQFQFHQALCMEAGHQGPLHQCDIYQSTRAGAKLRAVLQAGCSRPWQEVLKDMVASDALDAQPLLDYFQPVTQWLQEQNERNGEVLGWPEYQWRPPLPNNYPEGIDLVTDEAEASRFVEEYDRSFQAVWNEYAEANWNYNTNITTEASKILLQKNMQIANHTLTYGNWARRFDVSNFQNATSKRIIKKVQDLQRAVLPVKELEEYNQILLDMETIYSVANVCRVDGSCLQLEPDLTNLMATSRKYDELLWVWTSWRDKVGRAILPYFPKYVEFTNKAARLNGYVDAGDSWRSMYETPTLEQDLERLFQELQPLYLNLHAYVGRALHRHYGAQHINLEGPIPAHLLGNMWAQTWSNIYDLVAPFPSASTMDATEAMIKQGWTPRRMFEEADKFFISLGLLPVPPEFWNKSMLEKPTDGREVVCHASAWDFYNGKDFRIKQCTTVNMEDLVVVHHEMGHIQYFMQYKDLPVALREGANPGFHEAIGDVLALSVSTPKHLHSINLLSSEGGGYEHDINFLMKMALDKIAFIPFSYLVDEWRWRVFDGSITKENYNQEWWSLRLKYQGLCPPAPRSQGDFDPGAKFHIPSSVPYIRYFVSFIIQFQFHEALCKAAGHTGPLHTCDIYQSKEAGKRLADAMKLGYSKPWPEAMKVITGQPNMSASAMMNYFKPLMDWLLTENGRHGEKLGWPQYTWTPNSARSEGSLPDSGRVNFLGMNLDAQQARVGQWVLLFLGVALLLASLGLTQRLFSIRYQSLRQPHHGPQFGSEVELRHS

[4] = target: Protein phosphatase 3 catalytic subunit alpha (Homo sapiens, UniProt Q08209); set-up: species or system Escherichia coli;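 also: inhibition of calcineurin (PP2B) enzyme activity, measured with DiFMUP as the substrate; in other assays of this panel Not Active means under 50% inhibition at 10 µM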
[5] = target: T2, Receptor-type tyrosine-protein phosphatase C (Homo sapiens, UniProt P08575); set-up: species or system Escherichia coli
T2 sequence (P08575 whole entry): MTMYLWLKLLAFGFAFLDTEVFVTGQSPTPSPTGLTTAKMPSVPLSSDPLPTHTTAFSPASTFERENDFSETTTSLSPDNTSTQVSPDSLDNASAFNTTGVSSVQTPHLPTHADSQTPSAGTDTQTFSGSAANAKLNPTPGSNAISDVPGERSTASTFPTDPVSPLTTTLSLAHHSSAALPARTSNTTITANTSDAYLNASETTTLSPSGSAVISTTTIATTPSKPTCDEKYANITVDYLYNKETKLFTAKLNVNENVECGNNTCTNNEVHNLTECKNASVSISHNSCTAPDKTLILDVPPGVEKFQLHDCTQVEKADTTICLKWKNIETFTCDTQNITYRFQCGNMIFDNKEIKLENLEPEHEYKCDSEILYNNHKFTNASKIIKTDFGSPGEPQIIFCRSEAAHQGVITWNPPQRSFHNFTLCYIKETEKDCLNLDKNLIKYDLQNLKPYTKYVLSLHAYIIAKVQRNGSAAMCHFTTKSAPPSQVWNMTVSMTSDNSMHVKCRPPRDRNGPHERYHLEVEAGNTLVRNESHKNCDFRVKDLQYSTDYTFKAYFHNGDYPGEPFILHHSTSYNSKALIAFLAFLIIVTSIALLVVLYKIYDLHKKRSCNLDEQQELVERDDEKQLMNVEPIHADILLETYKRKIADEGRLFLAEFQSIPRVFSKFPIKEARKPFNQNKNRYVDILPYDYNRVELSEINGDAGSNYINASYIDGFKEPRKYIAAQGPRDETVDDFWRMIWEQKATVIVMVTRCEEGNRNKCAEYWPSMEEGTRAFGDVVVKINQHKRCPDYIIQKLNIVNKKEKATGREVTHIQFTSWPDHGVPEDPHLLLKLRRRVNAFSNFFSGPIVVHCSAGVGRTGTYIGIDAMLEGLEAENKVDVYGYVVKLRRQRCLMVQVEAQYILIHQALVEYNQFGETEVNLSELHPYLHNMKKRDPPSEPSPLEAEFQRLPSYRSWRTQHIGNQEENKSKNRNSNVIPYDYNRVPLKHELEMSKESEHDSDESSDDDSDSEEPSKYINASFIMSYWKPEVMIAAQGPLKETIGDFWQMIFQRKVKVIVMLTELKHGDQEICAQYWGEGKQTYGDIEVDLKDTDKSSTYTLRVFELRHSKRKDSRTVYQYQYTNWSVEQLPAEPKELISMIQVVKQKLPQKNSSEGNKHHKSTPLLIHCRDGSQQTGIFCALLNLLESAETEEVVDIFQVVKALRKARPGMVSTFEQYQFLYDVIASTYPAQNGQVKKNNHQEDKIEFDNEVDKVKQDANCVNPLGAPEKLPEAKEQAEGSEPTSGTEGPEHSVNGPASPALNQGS

[6] = DRUGMATRIX: Purinergic P2X radioligand binding (ligand: [3H] alpha, beta-Methylene-ATP); type: cell membranes, Oryctolagus cuniculus, New Zealand albino, Urinary bladder, Membrane; details: Not Active = under 50% inhibition at 10 µM

COc1ccccc1C(=O)N1CCC(Cc2ccccc2)CC1
Not Active: IC50 [1] | IC50 [2] | Ki [2] | IC50 (Melanocortin receptor 4) | IC50 [3] | IC50 [4] | IC50 [5] | IC50 [6] | Ki [6]

Cc1ccccc1C(=O)N1CCC(Cc2ccccc2)CC1
Not Active: IC50 [1] | IC50 [2] | Ki [2] | IC50 (Melanocortin receptor 4) | IC50 [3] | IC50 [4] | IC50 [5] | IC50 [6] | Ki [6]

O=C1CC[C@H](N2C(=O)c3ccccc3C2=O)C(=O)N1
Not Active: IC50 [1] | IC50 [2] | Ki [2] | IC50 (Melanocortin receptor 4) | IC50 [3] | IC50 [4] | IC50 [5] | IC50 [6] | Ki [6]

N=C(Nc1ccccc1)Nc1ccccc1
Not Active: IC50 [1] | IC50 [2] | Ki [2] | IC50 (Melanocortin receptor 4) | IC50 [3] | IC50 [4] | IC50 [5] | IC50 [6] | Ki [6]

C[C@@H](O)[C@H](CO)NC(=O)[C@@H]1CSSC[C@H](NC(=O)[C@H](N)Cc2ccccc2)C(=O)N[C@@H](Cc2ccccc2)C(=O)N[C@H](Cc2c[nH]c3ccccc23)C(=O)N[C@@H](CCCCN)C(=O)N[C@@H]([C@@H](C)O)C(=O)N1 (H-[dF]CF[dW]KTC-{Threoninol(2S,3R)}; disulfide 2-7)
Not Active: IC50 [1] | IC50 [2] | Ki [2] | IC50 (Melanocortin receptor 4) | IC50 [3] | IC50 [4] | IC50 [5] | IC50 [6] | Ki [6]

S=C=Nc1cccc2ccccc12 [1-NAPHTHYLISOTHIOCYANATE]
Not Active: IC50 [1] | IC50 [2] | Ki [2] | IC50 (Melanocortin receptor 4) | IC50 [3] | IC50 [4] | IC50 [5] | IC50 [6] | Ki [6]

C[C@](O)(CS(=O)(=O)c1ccc(F)cc1)C(=O)Nc1ccc(C#N)c(C(F)(F)F)c1 [(R)-BICALUTAMIDE]
Not Active: IC50 [1] | IC50 [2] | Ki [2] | IC50 (Melanocortin receptor 4) | IC50 [3] | IC50 [4] | IC50 [5] | IC50 [6] | Ki [6]

CCCC(=O)Nc1ccc(OCC(O)CNC(C)C)c(C(C)=O)c1 (configuration not stated) [ACEBUTOLOL]
Not Active: IC50 [1] | IC50 [2] | Ki [2] | IC50 (Melanocortin receptor 4) | IC50 [3] | IC50 [4] | IC50 [5] | IC50 [6] | Ki [6]

CC(=O)Nc1ccc(O)cc1 [ACETAMINOPHEN]
Not Active: IC50 [1] | IC50 [2] | Ki [2] | IC50 (Melanocortin receptor 4) | IC50 [3] | IC50 [4] | IC50 [5] | IC50 [6] | Ki [6]

COc1cc2c(c3oc(=O)c4c(c13)CCC4=O)[C@@H]1C=CO[C@@H]1O2 [AFLATOXIN]
Not Active: IC50 [1] | Ki [1] | IC50 [2] | Ki [2] | IC50 (Melanocortin receptor 4) | Ki (Melanocortin receptor 4) | IC50 [3] | Ki [3] | IC50 [4] | Ki [4] | IC50 [5] | Ki [5] | IC50 [6] | Ki [6]

N=C(N)NC(=O)c1nc(Cl)c(N)nc1N [AMILORIDE]
Not Active: IC50 [1] | IC50 [2] | Ki [2] | IC50 (Melanocortin receptor 4) | IC50 [3] | IC50 [4] | IC50 [5] | IC50 [6] | Ki [6]

Cc1cc(=O)n(-c2ccccc2)n1C [ANTIPYRINE]
Not Active: IC50 [1] | IC50 [2] | Ki [2] | IC50 (Melanocortin receptor 4) | IC50 [3] | IC50 [4] | IC50 [5] | IC50 [6] | Ki [6]

CN1C(=O)COc2c(C(=O)NC3CN4CCC3CC4)cc(Cl)cc21 (configuration not stated) [AZASETRON]
Not Active: IC50 [1] | IC50 [2] | Ki [2] | IC50 (Melanocortin receptor 4) | IC50 [3] | IC50 [4] | IC50 [5] | IC50 [6] | Ki [6]

C[C@H]1C[C@H]2[C@@H]3CCC4=CC(=O)C=C[C@]4(C)[C@@]3(Cl)[C@@H](O)C[C@]2(C)[C@@]1(O)C(=O)CO [BECLOMETHASONE]
Not Active: IC50 [1] | IC50 [2] | Ki [2] | IC50 (Melanocortin receptor 4) | IC50 [3] | IC50 [4] | IC50 [5] | IC50 [6] | Ki [6]

CCOC(=O)[C@H](CCc1ccccc1)N[C@H]1CCc2ccccc2N(CC(=O)O)C1=O [BENAZEPRIL]
Not Active: IC50 [1] | IC50 [2] | Ki [2] | IC50 (Melanocortin receptor 4) | IC50 [3] | IC50 [4] | IC50 [5] | IC50 [6] | Ki [6]

Nc1c(CC(=O)O)cccc1C(=O)c1ccc(Br)cc1 [BROMFENAC]
Not Active: IC50 [1] | IC50 [2] | Ki [2] | IC50 (Melanocortin receptor 4) | IC50 [3] | IC50 [4] | IC50 [5] | IC50 [6] | Ki [6]

C/C=C/C[C@@H](C)[C@@H](O)[C@H]1C(=O)N[C@@H](CC)C(=O)N(C)CC(=O)N(C)[C@@H](CC(C)C)C(=O)N[C@@H](C(C)C)C(=O)N(C)[C@@H](CC(C)C)C(=O)N[C@@H](C)C(=O)N[C@H](C)C(=O)N(C)[C@@H](CC(C)C)C(=O)N(C)[C@@H](CC(C)C)C(=O)N(C)[C@@H](C(C)C)C(=O)N1C [CYCLOSPORINE]
Not Active: IC50 [1] | IC50 [2] | Ki [2] | IC50 (Melanocortin receptor 4) | IC50 [3] | IC50 [5] | IC50 [6] | Ki [6]
